Laboratory results: patent US9694078B2, “Tigecycline compositions and methods of preparation” (priority 2005, dated 2017)

Assays:
[1] = test system: vancomycin-resistant enterococci; conditions: cited from earlier work
[2] = oral; cited from earlier work
[3] = pH of tigecycline dissolved in water prior to lyophilization; type: physicochemical
Method: Tigecycline has such a short admixture time and the reconstitution time is essentially zero because in solution, tigecycline oxidation is relatively rapid. Under current manufacturing, storage, and administration conditions, the most prevalent form of degradation is via oxidation. The reason oxidation is the most prevalent form of degradation in previous formulations relates to the chemical structure of tigecycline. […] When tigecycline is dissolved in water prior to lyophilization, the pH is slightly basic (about 7.8). This is higher than the pKa of the phenolic group on tigecycline. Thus, in both water and saline solutions, the phenolic group becomes deprotonated and more susceptible to reaction with oxygen which is why tigecycline compounding and lyophilization occur under a nitrogen blanket. Accordingly, care to avoid unnecessary exposure to oxygen must be taken by hospital staff during reconstitution and dilution.

[4] = test system: penicillin-resistant Streptococcus pneumoniae; conditions: cited from earlier work
[5] = Epimerization of minocycline versus tigecycline lyophilized at pH about 5.0, HPLC; type: physicochemical; conditions: lyophilized at pH about 5.0, stored 4 days at 40° C. and 75% relative humidity
Method: In another experiment, minocycline was lyophilized at a pH of about 5.0 and the lyophilized cake was stored for 20 days at 40° C. and 75% relative humidity. At the end of the 20 days, the cake was analyzed by HPLC. The epimer of minocycline was measured to be present at a level of 2.65% by mass. By comparison, when tigecycline was lyophilized at a pH of about 5.0 and the sample stored under the same conditions, but for only 4 days followed by HPLC analysis, the tigecycline epimer was measured to be at a level of 5.40%, over twice as much even though tigecycline was only stressed for ⅕^th as long as minocycline. Thus, tigecycline epimerizes much more readily than minocycline, and epimerization is a much more significant problem with tigecycline than it is for minocycline.

[6] = test system: methicillin-resistant Staphylococcus aureus; conditions: cited from earlier work
[7] = existing composition, 1 mg/mL after dilution; cited from earlier work
[8] = test system: bacteria; conditions: compared with tigecycline; cited from earlier work

Compound | activity against vancomycin-resistant enterococci [1] | bioavailability when given orally [2] | pH of solution in water [3] | activity against penicillin-resistant Streptococcus pneumoniae [4] | level of the tigecycline epimer [5] [%] | activity against methicillin-resistant Staphylococcus aureus [6] | time within which the diluted solution should be used [7] [h] | anti-bacterial efficacy [8]
CN(C)c1cc(NC(=O)CNC(C)(C)C)c(O)c2c1C[C@H]1C[C@H]3[C@H](N(C)C)C(O)=C(C(N)=O)C(=O)[C@@]3(O)C(O)=C1C2=O [Tigecycline] | active | generally poor | about 7.8 | active | 5.40 | active | ≤ 6 | –
CN(C)c1cc(NC(=O)CNC(C)(C)C)c(O)c2c1C[C@H]1C[C@H]3[C@@H](N(C)C)C(O)=C(C(N)=O)C(=O)[C@@]3(O)C(O)=C1C2=O [tigecycline epimer] | – | – | – | – | – | – | – | lacks the anti-bacterial efficacy of tigecycline
